The values below come from patent US20230096028A1, “BICYCLIC HETEROCYCLYL COMPOUNDS AND USES THEREOF” (Revolution Medicines, Inc., priority 2019, published 2023).

Test [1] has as its system PC-9 cells (EGFR Ex19Del). Description: Potency Assay: pERK (SOS1 pERK IC50 Assay, AlphaLISA SureFire Ultra p-ERK1/2). The class given is cell-based. As to conditions: Homo sapiens; PC-9 cells (EGFR Ex19Del), 1 hour incubation, AlphaLISA p-ERK1/2; read-out: SOS1 pERK IC50. In outline:
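PC-9 (EGFR Ex19Del) cells plated overnight, then treated 1 h at 37° C. with 10-point 3-fold dilutions (top 10 μM final) in duplicate. Lysate pERK1/2 measured by AlphaLISA SureFire Ultra; IC50 from 4-parameter sigmoidal fit.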

Test [2] deals with T1, SOS1 catalytic domain (residues 564-1049) (Homo sapiens, UniProt Q07889).
T1 sequence (Q07889 564-1049): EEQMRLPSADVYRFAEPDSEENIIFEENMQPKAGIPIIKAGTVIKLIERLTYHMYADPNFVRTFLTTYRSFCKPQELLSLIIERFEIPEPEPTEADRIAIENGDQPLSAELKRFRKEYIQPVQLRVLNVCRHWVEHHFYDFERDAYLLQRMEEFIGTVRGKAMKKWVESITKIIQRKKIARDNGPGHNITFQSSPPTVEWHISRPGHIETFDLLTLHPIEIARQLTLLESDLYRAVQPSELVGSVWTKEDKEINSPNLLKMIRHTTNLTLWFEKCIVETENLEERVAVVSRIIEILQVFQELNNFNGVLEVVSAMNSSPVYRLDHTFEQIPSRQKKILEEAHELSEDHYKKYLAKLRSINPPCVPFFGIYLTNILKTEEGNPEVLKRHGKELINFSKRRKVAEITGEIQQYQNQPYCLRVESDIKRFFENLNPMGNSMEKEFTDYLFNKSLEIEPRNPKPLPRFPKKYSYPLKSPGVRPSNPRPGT
Description: Mode of Action Assay: inhibition of SOS1 nucleotide exchange activity (SOS1 TR-FRET IC50 Assay). (Time-resolved FRET reads energy transfer from a long-lived donor to a nearby acceptor.)

Test [3] has as its target T1, SOS1 catalytic domain (residues 564-1049). Description: Potency Assay: binding affinity to SOS1 using Surface Plasmon Resonance (SPR). Also on record: SOS1 catalytic domain (residues 564-1049) immobilized on a sensor chip. As to conditions: immobilized SOS1 catalytic domain (residues 564-1049), read-out: SOS1 SPR Equilibrium Kd. The gist of the method:
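Avi-tagged SOS1 catalytic domain captured on streptavidin chip (~6000 RU) in 0.01 M HEPES, 0.15 M NaCl, 0.05% P20. Compound dilution series flowed at 50 μL/min for association, then buffer for dissociation, with double reference subtraction. Kd derived from end-of-association binding response plotted against concentration.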

Each structure is given as a SMILES string. A value given as a limit tells only on which side of the number the result lay.

In the case of `C[C@@H](Nc1nc(Cl)nc2c1CN(C(=O)N1CCNC3(CC3)C1)C2)c1cccc(C(F)(F)F)c1` [Example 374], the IC50 in test [1] and in test [2] was less than 1 µM in each case. For the same molecule, in test [3], the Kd is less than 0.4 µM.

Turning to `C[C@@H](Nc1nc(Cl)nc2c1CN(C(=O)N1CCNc3ccncc31)C2)c1cccc(C(F)(F)F)c1` [Example 375], the concentration for half-maximal inhibition (IC50) in test [1] and in test [2] was less than 1 µM throughout. For the same molecule, the Kd in test [3] was less than 0.4 µM.

Take `C[C@@H](Nc1nc(Cl)nc2c1CN(C(=O)N1CCNC(=O)C1)C2)c1cccc(C(F)(F)F)c1` [Example 376]: the IC50 in test [1] and in test [2] was less than 1 µM each time. In addition, the dissociation constant Kd in test [3] was less than 0.4 µM.

For the molecule `C[C@@H](Nc1nc(Cl)nc2c1CN(C(=O)N1CCCNCC1)C2)c1cccc(C(F)(F)F)c1` [Example 377], the IC50 in test [1] and in test [2] was less than 1 µM each time. Besides, in test [3], the dissociation constant Kd is less than 0.4 µM.

For `C[C@@H](Nc1nc(Cl)nc2c1CN(C(=O)N1C[C@H]3CNCC[C@H]3C1)C2)c1cccc(C(F)(F)F)c1` [Example 378], the figures for the IC50 in test [1] and in test [2] were greater than 1 µM and less than 1 µM, respectively. Further, in test [3], the dissociation constant (Kd) is less than 0.4 µM.

Turning to `C[C@@H](Nc1nc(Cl)nc2c1CN(C(=O)N1C[C@H]3CNC[C@H]3C1)C2)c1cccc(C(F)(F)F)c1` [Example 380], the half-inhibitory concentration (IC50) in test [1] was greater than 1 µM; in test [2], less than 1 µM. Besides, the Kd in test [3] was less than 0.4 µM.

As to `CC(=O)N1CCN(C(=O)N2Cc3nc(Cl)nc(N[C@H](C)c4cccc(C(F)(F)F)c4)c3C2)CC1` [Example 381], the IC50 in test [1] and in test [2] was less than 1 µM throughout. In addition, the dissociation constant (Kd) in test [3] was less than 0.4 µM.

Regarding `C[C@@H](Nc1nc(Cl)nc2c1CN(C(=O)N1CCCC13CCNC3)C2)c1cccc(C(F)F)c1F` (stereo partly drawn) [Example 382], the IC50 in test [1] is greater than 1 µM; in test [2], less than 1 µM. Besides, the dissociation constant (Kd) in test [3] is less than 0.4 µM.

With `C[C@@H](Nc1nc(Cl)nc2c1CN(C(=O)N1CCN(C3COC3)CC1)C2)c1cccc(C(F)F)c1F` [Example 383], the IC50 in test [1] and in test [2] was less than 1 µM each time. In test [3], the Kd was less than 0.4 µM.

On to `C[C@@H](Nc1nc(Cl)nc2c1CN(C(=O)N1CC3CCC1CN3)C2)c1cccc(C(F)F)c1F` (stereo partly drawn) [Example 384], for which the IC50 in test [1] and in test [2] was less than 1 µM throughout. In test [3], the Kd is less than 0.4 µM.

With `C[C@@H](Nc1nc(Cl)nc2c1CN(C(=O)N1CC3COCC(C1)N3)C2)c1cccc(C(F)F)c1F` [Example 385], the 50% inhibitory concentration (IC50) in test [1] and in test [2] was less than 1 µM each time. In addition, in test [3], the Kd was less than 0.4 µM.

With `C[C@@H](Nc1nc(Cl)nc2c1CN(C(=O)N1CCNCC1c1cccnc1)C2)c1cccc(C(F)F)c1F` (stereo partly drawn) [Example 386], the IC50 in test [1] and in test [2] was less than 1 µM throughout. Further, the Kd in test [3] is less than 0.4 µM.

For `C[C@@H](Nc1nc(Cl)nc2c1CN(C(=O)N1CCNC(C(F)(F)F)C1)C2)c1cccc(C(F)F)c1F` (stereo partly drawn) [Example 387], the 50% inhibitory concentration (IC50) in test [1] and in test [2] was less than 1 µM throughout. Moreover, the Kd in test [3] is less than 0.4 µM.

Regarding `C[C@@H](Nc1nc(Cl)nc2c1CN(C(=O)N1CC3CCC(C1)N3)C2)c1cccc(C(F)F)c1F` [Example 388], the IC50 in test [1] and in test [2] was less than 1 µM each time. The equilibrium dissociation constant (Kd) in test [3] was less than 0.4 µM.

With `C[C@@H](Nc1ncnc2c1CN(C(=O)N1CCOCC1)C2)c1cccc(C(F)F)c1F` [Example 389], the half-maximal inhibitory concentration (IC50) in test [1] was greater than 1 µM; in test [2] it was less than 1 µM. For the same molecule, in test [3], the Kd was less than 0.4 µM.

Turning to `C[C@@H](Nc1nc(Cl)nc2c1CN(C(=O)N1CCC3(CCN3)CC1)C2)c1cccc(C(F)F)c1F` [Example 390], the 50% inhibitory concentration (IC50) in test [1] and in test [2] was less than 1 µM in each case. Besides, the Kd in test [3] was less than 0.4 µM.

For `CC1CNCCN1C(=O)N1Cc2nc(Cl)nc(N[C@H](C)c3cccc(C(F)F)c3F)c2C1` (stereo partly drawn) [Example 391], the half-inhibitory concentration (IC50) in test [1] and in test [2] was less than 1 µM throughout. Moreover, in test [3], the equilibrium dissociation constant (Kd) was less than 0.4 µM.

In the case of `C[C@@H](Nc1nc(Cl)nc2c1CN(C(=O)N1CCC13CNC3)C2)c1cccc(C(F)F)c1F` [Example 392], the half-maximal inhibitory concentration (IC50) in test [1] was greater than 1 µM; in test [2] it was less than 1 µM. In addition, in test [3], the Kd is less than 0.4 µM.

For the molecule `C[C@@H](Nc1nc(Cl)nc2c1CN(C(=O)N1CC3(CNC3)C1)C2)c1cccc(C(F)F)c1F` [Example 393], the results for the half-inhibitory concentration (IC50) in test [1] and in test [2] were greater than 1 µM and less than 1 µM, respectively. For the same molecule, the Kd in test [3] was less than 0.4 µM.

With `CC(=O)N1CCN(C(=O)N2Cc3nc(Cl)nc(N[C@H](C)c4cccc(C(F)F)c4F)c3C2)CC1` [Example 394], the IC50 in test [1] and in test [2] was less than 1 µM each time. Further, the Kd in test [3] is less than 0.4 µM.

`C[C@@H](Nc1nc(Cl)nc2c1CN(C(=O)N1CCC(O)CC1)C2)c1cccc(C(F)F)c1F` [Example 395]: the IC50 in test [1] and in test [2] was less than 1 µM throughout. Also, the dissociation constant Kd in test [3] is less than 0.4 µM.

Turning to `C[C@@H](Nc1nc(Cl)nc2c1CN(C(=O)N1C3CCC1COC3)C2)c1cccc(C(F)F)c1F` [Example 396], the IC50 in test [1] and in test [2] was less than 1 µM throughout. In addition, the dissociation constant (Kd) in test [3] was less than 0.4 µM.

On to `C[C@@H]1CN(C(=O)N2Cc3nc(Cl)nc(N[C@H](C)c4cccc(C(F)F)c4F)c3C2)C[C@H](C)N1C` [Example 397], for which the IC50 in test [1] and in test [2] was less than 1 µM throughout. Moreover, the Kd in test [3] is less than 0.4 µM.

Regarding `C[C@@H](Nc1nc(Cl)nc2c1CN(C(=O)N1CC3CNCC(C1)O3)C2)c1cccc(C(F)F)c1F` [Example 398], the IC50 in test [1] is greater than 1 µM; in test [2], less than 1 µM. The equilibrium dissociation constant (Kd) in test [3] was less than 0.4 µM.

Consider `C[C@@H](Nc1nc(Cl)nc2c1CN(C(=O)N1C[C@@H]3C[C@H]1CN3)C2)c1cccc(C(F)F)c1F` [Example 399], for which the IC50 was greater than 1 µM in test [1] and less than 1 µM in test [2]. Also, the Kd in test [3] is less than 0.4 µM.

Turning to `C[C@@H](Nc1nc(Cl)nc2c1CN(C(=O)N1CCCNCC1)C2)c1cccc(C(F)F)c1F` [Example 400], the half-inhibitory concentration (IC50) in test [1] and in test [2] was less than 1 µM each time. Besides, the Kd in test [3] is less than 0.4 µM.

`C[C@@H](Nc1nc(Cl)nc2c1CN(C(=O)N1CCNC(c3ccncc3)C1)C2)c1cccc(C(F)F)c1F` (stereo partly drawn) [Example 401]: the concentration for half-maximal inhibition (IC50) in test [1] and in test [2] was less than 1 µM in each case. Besides, the Kd in test [3] is less than 0.4 µM.

Regarding `C[C@@H](Nc1nc(Cl)nc2c1CN(C(=O)N1CCNCC(F)(F)C1)C2)c1cccc(C(F)F)c1F` [Example 402], the half-maximal inhibitory concentration (IC50) in test [1] and in test [2] was less than 1 µM each time. Further, the Kd in test [3] is less than 0.4 µM.

Turning to `C[C@@H](Nc1nc(Cl)nc2c1CN(C(=O)N1CCNC(=O)C1)C2)c1cccc(C(F)F)c1F` [Example 403], the concentration for half-maximal inhibition (IC50) in test [1] and in test [2] was less than 1 µM throughout. Moreover, the Kd in test [3] is less than 0.4 µM.

With `C[C@@H](Nc1nc(Cl)nc2c1CN(C(=O)N1CCNCC(F)C1)C2)c1cccc(C(F)F)c1F` (stereo partly drawn) [Example 404], the IC50 in test [1] and in test [2] was less than 1 µM each time. Further, in test [3], the dissociation constant Kd was less than 0.4 µM.

Take `C[C@@H](Nc1nc(Cl)nc2c1CN(C(=O)N1CCNCC13COC3)C2)c1cccc(C(F)F)c1F` [Example 405]: the half-maximal inhibitory concentration (IC50) in test [1] is greater than 1 µM; in test [2], less than 1 µM. In addition, the Kd in test [3] was less than 0.4 µM.

Turning to `C[C@@H](Nc1nc(Cl)nc2c1CN(C(=O)N1C[C@H]3C[C@@H]1CN3)C2)c1cccc(C(F)F)c1F` [Example 406], the concentration for half-maximal inhibition (IC50) in test [1] and in test [2] was less than 1 µM throughout. In test [3], the dissociation constant Kd is less than 0.4 µM.

Consider `C[C@@H](Nc1nc(Cl)nc2c1CN(C(=O)N1CCNCC1)C2)c1cccc(C(F)F)c1F` [Example 407], for which the 50% inhibitory concentration (IC50) in test [1] and in test [2] was less than 1 µM in each case. In addition, the Kd in test [3] was less than 0.4 µM.

As to `C[C@@H](Nc1nc(Cl)nc2c1CN(C(=O)C1(F)CN(C)C1)C2)c1cccc(C(F)F)c1F` [Example 408], the IC50 in test [1] and in test [2] was less than 1 µM each time. Besides, the Kd in test [3] was less than 0.4 µM.

Take `C[C@@H](Nc1nc(Cl)nc2c1CN(C(=O)N1C3COCC1COC3)C2)c1cccc(C(F)F)c1F` [Example 409]: the IC50 in test [1] and in test [2] was less than 1 µM each time. Moreover, the Kd in test [3] is less than 0.4 µM.

For `C[C@@H](Nc1nc(Cl)nc2c1CN(C(=O)N1C[C@H]3COC[C@H]3C1)C2)c1cccc(C(F)F)c1F` [Example 410], the IC50 in test [1] and in test [2] was less than 1 µM each time. Besides, the equilibrium dissociation constant (Kd) in test [3] was less than 0.4 µM.

In the case of `C[C@@H](Nc1nc(Cl)nc2c1CN(C(=O)N1CCOC(F)(F)C1)C2)c1cccc(C(F)F)c1F` [Example 411], the half-inhibitory concentration (IC50) in test [1] and in test [2] was less than 1 µM throughout. Besides, the Kd in test [3] is less than 0.4 µM.

As a reminder, the IC50 is the point on the concentration scale where inhibition reaches its midpoint. What is called Kd is the constant that tells how readily two partners part at equilibrium.
